PubChem BioAssay AID1259408 (Genetic Toxicology Data Bank (GENE-TOX), 2018)
The source made the active and inactive calls. The rule behind the calls is not given here.

Test system: GENE-TOX genotoxicity assays, various organisms and cells
Test: GENE-TOX mutagenicity studies
Settings: for call: Assay Type: In vivo carcinogenicity studies
[1] = Species/Cell Type: Drosophila melanogaster, Assay Type: Sex-linked recessive lethal gene mutation, Assay Code: SRL+, Evaluation Type: Evaluation A (Pre-1980)
[2] = Species/Cell Type: Human, Assay Type: Sister-chromatid exchange (SCE) in vitro, Assay Code: SC1+D, Dose Response: With dose response, Evaluation Type: Evaluation B (Post-1980)
[3] = Species/Cell Type: Mammalian polychromatic erythrocytes, Assay Type: Micronucleus test, chromosome aberrations, Assay Code: MNT+, Evaluation Type: Evaluation A (Pre-1980)
[4] = Species/Cell Type: Mouse, Sex: Male, Assay Type: Sperm morphology, Assay Code: SPI+, Evaluation Type: Evaluation A (Pre-1980)
[5] = Species/Cell Type: Nonhuman, Assay Type: Chromosome aberrations in vitro, Assay Code: CY&+, Evaluation Type: Evaluation A (Pre-1980)
[6] = Species/Cell Type: Nonhuman, Assay Code: CCG+, Evaluation Type: Evaluation A (Pre-1980)
[7] = Species/Cell Type: Saccharomyces cerevisiae, Assay Type: Mitotic recombination or gene conversion, Assay Code: YEC+, Evaluation Type: Evaluation A (Pre-1980)
[8] = Species/Cell Type: Escherichia coli polA (W3119 vs P3478), Assay Type: Rec-assay, DNA effects (bacterial DNA repair), Assay Code: RE1T, Evaluation Type: Evaluation A (Pre-1980)
[9] = Species/Cell Type: Mouse, Sex: Male, Assay Type: Sperm morphology, Assay Code: SPI-, Evaluation Type: Evaluation A (Pre-1980)
[10] = Species/Cell Type: Human lymphocytes, Assay Type: Sister-chromatid exchange (SCE) in vitro, Assay Code: SCLT, Evaluation Type: Evaluation B (Post-1980)
[11] = Species/Cell Type: Human, Assay Type: Sister-chromatid exchange (SCE) in vitro, Assay Code: SC1T, Evaluation Type: Evaluation B (Post-1980)
[12] = Species/Cell Type: Salmonella typhimurium (one or more of the five standard strains: TA98, TA100, TA1535, TA1537, and TA1538), Assay Type: Histidine reverse gene mutation, Ames assay, Assay Code: SAL-, Evaluation Type: Evaluation A (Pre-1980)

Compound: S=P(N1CC1)(N1CC1)N1CC1
- mutagenic call [1]: active; positive
- mutagenic call (Species/Cell Type: Human lymphocytes or leukocytes, Assay Type: Chromosome aberrations in vitro, Assay Code: CY7+, Evaluation Type: Evaluation A (Pre-1980)): active; positive
- mutagenic call (Species/Cell Type: Human lymphocytes, Assay Type: Sister-chromatid exchange (SCE) in vitro, Assay Code: SCL+D, Dose Response: With dose response, Evaluation Type: Evaluation B (Post-1980)): active; positive
- mutagenic call [2]: active; positive
- mutagenic call [3]: active; positive
- mutagenic call (Species/Cell Type: Mouse (C3H/10T1/2) cells, Assay Type: Cell transformation, Assay Code: CTH+, Evaluation Type: Evaluation A (Pre-1980)): active; positive
- mutagenic call (Species/Cell Type: Mouse, Sex: Male, Assay Type: Heritable translocation test, chromosome aberrations, Assay Code: HTT+, Evaluation Type: Evaluation A (Pre-1980)): active; positive
- mutagenic call [4]: active; positive
- mutagenic call (Species/Cell Type: Nonhuman bone marrow, Assay Type: Chromosome aberrations, in vivo, Assay Code: CY#+D, Dose Response: With dose response, Evaluation Type: Evaluation A (Pre-1980)): active; positive
- mutagenic call [5]: active; positive
- call [6]: active; positive
- mutagenic call (Species/Cell Type: Nonhuman, Assay Type: Sister-chromatid exchange (SCE) in vitro, Assay Code: SC2+D, Dose Response: With dose response, Evaluation Type: Evaluation A (Pre-1980)): active; positive
- mutagenic call (Species/Cell Type: Rodents, Sex: Male, Assay Type: Dominant lethal test, Assay Code: DLT+D, Dose Response: With dose response, Evaluation Type: Evaluation A (Pre-1980)): active; positive
- mutagenic call [7]: active; positive
- mutagenic call (Species/Cell Type: Salmonella typhimurium (one or more of the five standard strains: TA98, TA100, TA1535, TA1537, and TA1538), Assay Type: Histidine reverse gene mutation, Ames assay, Assay Code: SAL+, Evaluation Type: Evaluation A (Pre-1980)): active; positive
- mutagenic call (Species/Cell Type: Salmonella typhimurium, Assay Type: Forward and reverse gene mutation, host-mediated assay, Assay Code: HMA+, Evaluation Type: Evaluation A (Pre-1980)): active; positive
- mutagenic call (Species/Cell Type: Vicia faba, Assay Type: Chromosome aberrations, Assay Code: VIC+D, Dose Response: With dose response, Evaluation Type: Evaluation A (Pre-1980)): active; positive

Compound: CCOC(=O)COc1ccc(Br)cc1CCl (tested in a mixture with another compound)
- mutagenic call (Species/Cell Type: Saccharomyces cerevisiae, Assay Type: Reverse gene mutation, Assay Code: YERT, Evaluation Type: Evaluation A (Pre-1980)): no conclusion

Compound: O=C(O)[C@@H]1CCCN1
- mutagenic call (Species/Cell Type: Salmonella typhimurium, Assay Type: Forward and reverse gene mutation, host-mediated assay, Assay Code: HMA-, Evaluation Type: Evaluation A (Pre-1980)): inactive; negative

Compound: CCOS(=O)(=O)CCl
- mutagenic call (Species/Cell Type: Schizosaccharomyces pombe, Assay Type: Reverse gene mutation, Assay Code: YEZ+, Evaluation Type: Evaluation A (Pre-1980)): active; positive

Compound: O=C1c2ccccc2-c2ccccc21
- mutagenic call [8]: no conclusion

Compound: O=C1c2cccc(O)c2C(=O)c2c(O)cc(CO)cc21
- mutagenic call (Species/Cell Type: Salmonella typhimurium (one or more of the five standard strains: TA98, TA100, TA1535, TA1537, and TA1538), Assay Type: Histidine reverse gene mutation, Ames assay, Assay Code: SAL+/-*, Activation: With metabolic activation, Evaluation Type: Evaluation A (Pre-1980)): inactive; positive without activation, negative with activation

Compound: Nc1ccccc1O
- mutagenic call [2]: active; positive

Compound: CC(=O)Nc1ccc(OCC(O)CNC(C)C)cc1 (stereo unspecified)
- mutagenic call (Species/Cell Type: Mammalian polychromatic erythrocytes, Assay Type: Micronucleus test, chromosome aberrations, Assay Code: MNTT, Evaluation Type: Evaluation B (Post-1980)): no conclusion
- mutagenic call [9]: inactive; negative

Compound: CN[C@H]1CCc2cc(OC)c(OC)c(OC)c2-c2ccc(OC)c(=O)cc21
- mutagenic call (Species/Cell Type: Drosophila melanogaster, Assay Type: Aneuploidy, sex chromosome gain, chromosome aberrations, Assay Code: DAG+F, Evaluation Type: Evaluation A (Pre-1980)): active; positive
- mutagenic call (Species/Cell Type: Drosophila melanogaster, Assay Type: Aneuploidy, whole sex chromosome loss, chromosome aberrations, Assay Code: DAC+F, Evaluation Type: Evaluation A (Pre-1980)): active; positive
- mutagenic call [10]: no conclusion
- mutagenic call [11]: no conclusion
- mutagenic call [3]: active; positive
- mutagenic call (Species/Cell Type: Nonhuman, Assay Type: Sister-chromatid exchange (SCE) in vitro, Assay Code: SC2T, Evaluation Type: Evaluation B (Post-1980)): no conclusion

Compound: Oc1cccc2c1cc1ccc3cccc4ccc2c1c34
- mutagenic call (Species/Cell Type: Chinese hamster lung (V79) cells, Assay Type: Forward gene mutation at the HPRT or ouabain locus, Assay Code: V79-*, Activation: With metabolic activation, Evaluation Type: Evaluation A (Pre-1980)): inactive; negative
- call (Species/Cell Type: Nonhuman, Assay Code: CCGT, Evaluation Type: Evaluation A (Pre-1980)): no conclusion
- mutagenic call (Species/Cell Type: Salmonella typhimurium (one or more of the five standard strains: TA98, TA100, TA1535, TA1537, and TA1538), Assay Type: Histidine reverse gene mutation, Ames assay, Assay Code: SALT, Evaluation Type: Evaluation A (Pre-1980)): no conclusion

Compound: O=[N+]([O-])O.O=[N+]([O-])O.[Cd+2]
- mutagenic call (Species/Cell Type: Nonhuman, Assay Type: Sister-chromatid exchange (SCE) in vitro, Assay Code: SC2-, Evaluation Type: Evaluation B (Post-1980)): inactive; negative

Compound: CC(C)NCC(Cl)c1ccc2ccccc2c1 (stereo unspecified)
- mutagenic call [4]: active; positive

Compound: CN1C[C@H](C(=O)N[C@]2(C)O[C@@]3(O)[C@@H]4CCCN4C(=O)[C@H](Cc4ccccc4)N3C2=O)C=C2c3cccc4[nH]cc(c34)C[C@H]21
- mutagenic call (Species/Cell Type: Rodents, Sex: Male, Assay Type: Dominant lethal test, Assay Code: DLT+, Evaluation Type: Evaluation A (Pre-1980)): active; positive

Compound: O=c1ccc2ccccc2[nH]1
- mutagenic call [12]: inactive; negative

Compound: Clc1ccc(C(c2ccc(Cl)cc2)C(Cl)(Cl)Cl)cc1
- mutagenic call (Species/Cell Type: Chinese hamster lung (V79) cells, Assay Type: Forward gene mutation at the HPRT or ouabain locus, Assay Code: V79+, Evaluation Type: Evaluation A (Pre-1980)): active; positive
- mutagenic call (Species/Cell Type: Drosophila melanogaster, Assay Type: Aneuploidy, partial sex chromosome loss, chromosome aberrations, Assay Code: DAP+M, Evaluation Type: Evaluation A (Pre-1980)): active; positive
- mutagenic call (Species/Cell Type: Drosophila melanogaster, Assay Type: Aneuploidy, sex chromosome gain, chromosome aberrations, Assay Code: DAGT, Evaluation Type: Evaluation A (Pre-1980)): no conclusion
- mutagenic call (Species/Cell Type: Drosophila melanogaster, Assay Type: Aneuploidy, whole sex chromosome loss, chromosome aberrations, Assay Code: DACT, Evaluation Type: Evaluation A (Pre-1980)): no conclusion
- mutagenic call (Species/Cell Type: Drosophila melanogaster, Assay Type: Sex-linked recessive lethal gene mutation, Assay Code: SRL-, Evaluation Type: Evaluation A (Pre-1980)): inactive; negative
- mutagenic call [8]: no conclusion
- mutagenic call (Species/Cell Type: Mammalian polychromatic erythrocytes, Assay Type: Micronucleus test, chromosome aberrations, Assay Code: MNTT, Evaluation Type: Evaluation A (Pre-1980)): no conclusion
- mutagenic call [9]: inactive; negative
- mutagenic call [5]: active; positive
- call [6]: active; positive
- mutagenic call (Species/Cell Type: Rodents, Sex: Male, Assay Type: Dominant lethal test, Assay Code: DLTT, Evaluation Type: Evaluation A (Pre-1980)): no conclusion
- mutagenic call (Species/Cell Type: Saccharomyces cerevisiae, Assay Type: Mitotic recombination or gene conversion, Assay Code: YEH-*, Activation: With metabolic activation, Evaluation Type: Evaluation A (Pre-1980)): inactive; negative
- mutagenic call [12]: inactive; negative
- mutagenic call (Species/Cell Type: Salmonella typhimurium, Serratia marcesens, Assay Type: Forward and reverse gene mutation, host-mediated assay, Assay Code: HM2-, Evaluation Type: Evaluation A (Pre-1980)): inactive; negative

Compound: Cc1ncc(COP(=O)(O)O)c(C=O)c1O
- mutagenic call [10]: no conclusion
- mutagenic call [11]: no conclusion

Compound: COc1ccc(N=NN(C)C)cc1
- mutagenic call [1]: active; positive
- mutagenic call [7]: active; positive
